# Experimental data published in paper PMC5343580, “Antimicrobial peptide cWFW kills by combining lipid phase separation with autolysis” (Scientific Reports, 2017).
# Peptide text beside a SMILES is read from it.
# Columns and labels:
# [1] = system: B. subtilis 168; experiment: Membrane fluidity in cells (laurdan GP); type: cell-based, Bacillus subtilis
# Text: Membrane fluidity was investigated with the small hydrophobic fluorescent dye laurdan, which integrates into cellular membranes and detects changes related to the lipid packing of the surrounding bilayer. The resulting changes in the fluorescence emission spectrum can be detected either spectroscopically or with fluorescence microscopy. A mathematical quantification of the emission shift is achieved by calculation of the laurdan GP (generalised polarisation) with GP = (I435 − I490)⁄(I435 + I490).
# B. subtilis 168 cells were grown to OD600 ~ 0.5 in LB/0.1% glucose and incubated with 10 μM laurdan for 5 min, shaking in the dark. […] The supernatant removed from the cells after the last washing step served as background for laurdan fluorescence not associated with cells. […] All samples were shaken briefly before fluorescence detection at 435 ± 5 nm and 490 ± 5 nm (upon excitation at 350 ± 10 nm) on a plate reader (Fluostar Optima, BMG Labtech). Laurdan fluorescence was monitored for at least 20 min. […] Laurdan fluorescence in liposomes was recorded using an LS 50B spectrofluorometer (Perkin-Elmer Corp., Germany). […] Laurdan fluorescence was detected separately at 435 and 500 nm, respectively. The average of three measurements for each preparation was calculated to determine corresponding laurdan GP values. […]
# [2] = system: B. subtilis 168/DSM 402; experiment: Cytosolic proteome response profile (radioactive pulse-labelling, 2D-PAGE); type: cell-based, Bacillus subtilis; details: 8 μM cWFW, BMM
# Description: To identify which cellular processes are disturbed by cWFW, we performed proteomic profiling of the Gram-positive model organism B. subtilis (Fig. 1). This technique combines radioactive pulse-labeling of newly synthesised proteins with two-dimensional SDS PAGE, thus providing insight into the acute antibiotic stress response.
# (§1) B. subtilis 168/DSM402 was grown in chemically defined Belitzky minimal medium (BMM)[61]. Cultures were incubated at 37 °C under steady agitation. Minimal inhibitory concentrations (MIC) were determined as described previously. In growth experiments, exponentially growing cultures were exposed to a concentration range of peptide (Supplementary Figure 1)[62]. For physiological stress experiments, concentrations were chosen that led to 50% reduction of the growth rate. For proteomic profiling, as well as for all follow up experiments performed under the same growth conditions, 8 μM cWFW were used.
# Radioactive labelling of newly synthesised proteins and subsequent separation of the cytosolic proteome by two-dimensional polyacrylamide gel electrophoresis (2D-PAGE) was performed as previously described. Analytical gel images were analysed as described by Raatschen & Bandow[63] using Decodon Delta 2D 4.1 image analysis software. […] Protein spots were identified by MALDI-ToF/ToF or nanoUPLC-ESI-MS/MS using a Synapt G2-S HDMS mass spectrometer equipped with a lock spray source for electrospray ionisation and a ToF detector (Waters) as previously reported (Supplementary Tables 2 and 3)[62].
# [3] = system: B. subtilis SDB206; type: cell-based, Bacillus subtilis; details: ywiE::neo clsB::spc clsA::ery (CL-deficient), determined in LB
# Description: (§2) Cells were inoculated from an overnight culture 1:100 and grown to mid-log phase (OD600 = 0.2–0.4). Unless stated otherwise, all experiments were carried out in LB medium at 37 °C. Cell numbers were determined using a Petroff-Hausser counting chamber: OD600 = 1 corresponds to 8.8 × 10^7 CFU/ml B. subtilis. Further information on strains, conditions of gene induction, and minimal inhibitory concentration are listed in Supplementary Table 4.
# (§3) The minimal inhibitory concentration (MIC), which is defined as the lowest concentration able to inhibit growth of a microorganism in vitro[59], was analysed as described before. Briefly, bacteria were grown to mid-log phase and diluted in growth medium to give a final cell number of 5 × 10^5 cells/well in 96 well microtiter plates. A microdilution technique was applied where small volumes of peptide solutions were added in a serial dilution ranging from 100 to 0.05 μM. Cells were cultivated for 18 hours, 37 °C, 180 rpm, followed by photometrical detection of the optical density using a microplate reader (Tecan). Peptide concentrations were tested in triplicates in three independent experiments.
# [4] = system: B. subtilis HB5343; type: cell-based, Bacillus subtilis; details: psd::ery (PE-deficient), determined in LB
# Description: as §2, §3
# [5] = system: B. subtilis 168; type: cell-based, Bacillus subtilis; details: 168, 18 h
# Description: as §2, §3
# [6] = system: B. subtilis KS19 (ΔlytABCDEF); experiment: Cell lysis (optical density) in autolysin-deficient strain; type: cell-based, Bacillus subtilis; details: different concentrations, three replicate cultures
# [7] = system: B. subtilis 168/DSM402; type: cell-based, Bacillus subtilis
# Description: as §1
# [8] = system: B. subtilis 168; experiment: ATP measurement (luciferase-based luminescence); type: cell-based, Bacillus subtilis; details: 20 min incubation with 4, 8, and 12 μM; p ≥ 0.05; three independent replicates
# Description: For the determination of cellular ATP levels samples were incubated with increasing concentration of cWFW for 20 min, followed by flash-freeze in liquid N2 in order to stop metabolism. Cell lysis and measurement of cell ATP levels were carried out using ATP bioluminescence Assay Kit HSII (Roche Applied Science) following manufacturer’s instructions using a BMG Fluostar Optima luminometer. The measured luminescence was calibrated with a serial dilution of ATP and triplicate samples were equalised against the optical density of the corresponding cell suspensions.
# [9] = system: B. subtilis 168; experiment: Membrane potential measurement with DiSC3(5); type: cell-based, Bacillus subtilis
# Description: Peptide-induced changes in membrane potential were measured using the voltage-sensitive fluorescent dye DiSC3(5). In aqueous solution DiSC3(5) emits strong fluorescence which is quenched upon accumulation in polarised cells. Upon depolarisation, DiSC3(5) is released from the cell resulting in an increased fluorescence due to de-quenching. B. subtilis 168 was grown at 37 °C to mid-log phase and diluted in LB medium to OD600 0.2. After centrifugation for 1 min at 16,500 rpm, the supernatant was removed and cells carefully resuspended in 1 ml fresh pre-warmed LB containing 0.1 mg/ml BSA. Subsequently, 140 μl aliquots of the cell suspension were transferred into a 96 well microtiter plate and allowed to settle. 10 μl of 15 μM DiSC3(5) in LB/15% DMSO were added to the wells to give a final DiSC3(5) concentration of 1 μM. Cellular accumulation (quenching) of DiSC3(5) was monitored until the signal had reached stable fluorescence levels. The peptides were added at desired concentrations at 5 μl/well, and the resulting changes in DiSC3(5) fluorescence were analysed for at least 20 min using a Fluostar Optima, BMG Labtech. Solutions, plates and instruments were warmed to 37 °C prior to use.
# [10] = system: human cells; details: cited from earlier work
# Text: Antimicrobial peptides (AMPs) have been in the focus of research attention as a promising alternative for conventional antibiotics. The subclass of arginine- and tryptophan-rich peptides, with cationic charge and hydrophobic residues, provides the ideal structural prerequisite for interaction with the negatively charged bacterial membranes. To elucidate optimal structure-activity properties we screened a library of small synthetic peptides derived from the active motif of human antimicrobial peptide lactoferricin[3]. This analysis identified the cyclic hexapeptide cWFW (cyclo-RRRWFW) as ...
# [11] = system: B. subtilis 168/DSM 402; experiment: Ion analysis (ICP-OES); type: cell-based, Bacillus subtilis; details: 15 min incubation with 8 μM, BMM, three independent measurements
# Description: Only metal-free plastic ware and ultrapure water (Bernd Kraft) were used. All centrifugation steps were reduced to 2 min to reduce sample handling time. Cultures were adjusted to OD500 = 0.4 prior to antibiotic exposure to ensure equal cell count in each sample. Samples were prepared as described by Wenzel et al.[13]. Briefly, B. subtilis 168/DSM402 was grown in BMM until early exponential growth phase. For determination of ion concentrations, subcultures were incubated with 8 μM cWFW for 15 min, followed by cell harvest by centrifugation, washed twice in TE buffer (100 mM Tris-HCl, 1 mM EDTA, pH 7.5) and once in the same buffer without EDTA. The obtained cell pellets were digested in 65% nitric acid (Bernd Kraft) at 80 °C for 16 h. Prior to element analysis, samples were diluted with ultrapure water to a final nitric acid concentration of 10%. Element concentrations were determined by inductively-coupled plasma atomic emission spectroscopy using an iCAP* 6300 Duo View ICP Spectrometer (Thermo Fisher Scientific) as described before. […] Element concentrations were converted into intracellular ion concentrations based on the B. subtilis cellular volume, which was taken as 3 × 10^–9 μl based on average rod size determined by cryo-electron microscopy images by Matias and Beveridge[64][65].
smiles,measurement,setting,value
"N=C(N)NCCC[C@@H]1NC(=O)[C@H](CCCNC(=N)N)NC(=O)[C@H](Cc2c[nH]c3ccccc23)NC(=O)[C@H](Cc2ccccc2)NC(=O)[C@H](Cc2c[nH]c3ccccc23)NC(=O)[C@H](CCCNC(=N)N)NC1=O [cWFW, cyclo(RRRWFW)] (cyclo(FWRRRW))",time until reduction of membrane fluidity reaches a steady state,"[1]; 6 μM, time-resolved laurdan GP",≤ 2 min
same,change of laurdan generalised polarisation (GP) in cells,"[1]; 10 min incubation with increasing concentrations, high GP = low membrane fluidity, three replicates",clear concentration-dependent increase in laurdan generalised polarisation (GP)
same,induction factor of protein AcsA,[2],3.7
same,induction factor of protein CitZ,[2],3.5
same,induction factor of protein ClpC,[2],5.4
same,induction factor of protein ClpP,[2],4.8
same,induction factor of protein DltA,[2],4.2
same,induction factor of protein Dps,[2],5.2
same,induction factor of protein FbaA,[2],2.9
same,induction factor of protein FosB,[2],8.3
same,induction factor of protein GroEL,[2],3.9
same,induction factor of protein GsiB,[2],8.4
same,induction factor of protein GtaB,[2],3.2
same,induction factor of protein IspH,[2],19.0
same,induction factor of protein LiaH,[2],16.6
same,induction factor of protein LuxS,[2],3.4
same,induction factor of protein MinD,[2],3.1
same,induction factor of protein NadE,[2],11.0
same,induction factor of protein NfrA,[2],5.7
same,induction factor of protein OhrB,[2],4.4
same,induction factor of protein PepF,[2],3.6
same,induction factor of protein PspA,[2],9.5
same,induction factor of protein PurH,[2],3.4
same,induction factor of protein RacX,[2],12.0
same,induction factor of protein SalA,[2],3.5
same,induction factor of protein SodA,[2],3.0
same,induction factor of protein SpoVG,[2],2.4
same,induction factor of protein TpiA,[2],5.8
same,induction factor of protein Tpx,[2],4.1
same,induction factor of protein YceC,[2],9.9
same,induction factor of protein YdaG,[2],5.6
same,induction factor of protein YdbD,[2],19.4
same,induction factor of protein YfhM,[2],5.8
same,induction factor of protein YjdA,[2],3.4
same,induction factor of protein YkaA,[2],4.6
same,induction factor of protein YoxD,[2],7.1
same,induction factor of protein YpuA,[2],4.0
same,induction factor of protein YqiW,[2],2.4
same,induction factor of protein YqkF,[2],7.7
same,induction factor of protein YthP,[2],5.9
same,induction factor of protein YvlB,[2],9.0
same,induction factor of protein YvyD,[2],6.2
same,induction factor of protein YwjI,[2],6.4
same,induction factor of protein YwrO,[2],4.3
same,MIC,[3],6 µM
same,MIC,[4],6 µM
same,MIC,[5],6 µM
same,lysis triggered by cWFW in the absence of major autolysins LytCDEF,[6],fully abolished
same,MIC,[7],8 µM
same,change of ATP levels,[8],No significant changes
same,membrane depolarisation (DiSC3(5) fluorescence),"[9]; growth-inhibitory concentrations (8 μM) and above, LB, 37 °C, three independent replicates",very low compared to that of the positive control KLA-1
same,time until membrane potential was restored almost to control levels,[9]; growth-inhibitory concentrations (8–12 μM),≤ 10 min
same,toxicity towards human cells,[10],not toxic towards human cells
same,change in cellular K+ content,[11],accumulation of K^+
same,leakage of cellular ions,[11],no leakage of cellular ions was observed
